Laboratory results taken from patent publication US20050009837A1, “Modulators of lipid metabolism and methods of use” (City of Hope, priority 2003, published 2005).

Assays:
[1] = tested on: SRE reporter (FAS proximal promoter); assay: SRE reporter (FAS proximal promoter-luciferase) assay in CV-1 cells; format: cell-based
Protocol: Since LXR regulates SREBP-1c expression, LXR also should regulate activities downstream of SREBP-1c. To test this, CV-1 cells were transiently transfected with as in Example 6, but with the SRE or the SREm reporter, SREBP-1c-dependent reporter constructs consisting of the FAS proximal promoter linked to the luciferase gene. […] See Wang et al., Mol. Cell 3:543-553, 1999, the disclosures of which are hereby incorporated by reference. Cells then were treated as in Example 6 with the indicated compounds, Clotrimazole or 25-hydroxycholesterol (25-OH cholesterol). 25-OH cholesterol is known to repress the synthesis of SREBP-1c and is therefore used to eliminate the effects of this transcription factor on the FAS promoter (SRE).

[2] = tested on: −241/+12 mSREBP-1c promoter; assay: SREBP-1c promoter reporter assay in CV-1 cells; format: cell-based; conditions: 10 μM
Protocol: This promoter is directly regulated by LXR via two LXREs present within the first 240 base pairs of the proximal promoter. Thus, we transfected CV-1 cells with the −241/+12 mSREBP-1c promoter along with LXRα or LXRβ. CV-1 cells were transiently transfected with full length LXRα or LXRβ, the SREBP-1c promoter or the SREBP-1c LXREm reporter and CMX-β-gal (as an internal control) in lipid-stripped serum. After transfection, the cells were treated with 10 μM Clotrimazole. The luciferase activity was normalized to the internal β-galactosidase control (reporter activity).

`Clc1ccccc1C(c1ccccc1)(c1ccccc1)n1ccnc1` [Clotrimazole] was tested, and the “LXRα induction of SRE reporter activity” value ([1]; LXRα co-transfected (3-fold increase)) was “prevented this induction”, the “LXRβ induction of SRE reporter activity” value ([1]; LXRβ co-expression (almost 2-fold increase)) was “prevented this induction” and the “activity of reporter containing mutated SRE” value ([1]; SREm reporter) was “no significant effects”. For the same molecule, the “repression of SRE reporter” value ([1]; absence of LXR) was “only a weak repressive effect”, the SREBP-1c promoter activity ([2]; absence of LXR, lipid-stripped serum) was “repressed” and the “SREBP-1c LXREm mutant promoter activity” value ([2]; both LXREs inactivated, absence or presence of LXR) was “did not repress the promoter activity”. The “LXRα-induced SREBP-1c promoter activity” value ([2]; co-transfected LXRα) was “repressed the LXR-induced activity” and the “LXRβ-induced SREBP-1c promoter activity” value ([2]; co-transfected LXRβ) was “repressed the LXR-induced activity”.
